Data published in US5496947A, “Quinolone carboxylic acid derivatives” (Dong Wha Pharmaceutical Industrial Co., Ltd., priority 1994, dated 1996).
Read-outs that look alike come from different tables or passages of the source.

What was measured:
[1] = test system: Haemophilus influenza ATCC 35056; assay: MIC, 2-fold dilution method in micro-well plate, H. influenzae; type: cell-based; settings: H. influenzae ATCC35056, 37° C.; read-out: Minimum Inhibitory Concentration
Outline: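 Hydrochloride salts dissolved in water (10 mg/ml stock) and serially diluted two-fold in micro-wells, each mixed with equal volume of overnight BHI-grown bacteria to about (10^5-10^6)/2 cfu/ml. Minimum inhibitory concentration recorded after incubation at 37° C.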

[2] = test system: Streptococcus pneumoniae ATCC 6303; assay: MIC, 2-fold dilution method in micro-well plate, S. pneumoniae; type: cell-based; settings: S. pneuinoniae ATCC6303, 37° C., read-out: Minimum Inhibitory Concentration
Outline: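 Inoculum of about (10^5–10^6)/2 cfu/ml came from an overnight brain-heart infusion culture at 37° C. Compounds, tested as hydrochloride salts dissolved in sterile water, were two-fold serially diluted in micro-well plates. The lowest concentration inhibiting growth after 37° C incubation was taken as MIC.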

[3] = test system: Enterobacter aerogenes ATCC 13048; assay: MIC, 2-fold dilution method in micro-well plate, E. aerogenes; type: cell-based; settings: Klebsiella aerogenes
Outline: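 MIC read after growth at 37° C in micro-well plates, with E. aerogenes at roughly (10^5–10^6)/2 cfu/ml per well, grown overnight in brain-heart infusion broth. Compounds tested as hydrochlorides, serially diluted two-fold in water from a 10 mg/ml stock.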

[4] = test system: Escherichia coli ATCC 25922; assay: MIC, 2-fold dilution method in micro-well plate, E. coli; type: cell-based
Outline: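 Broth two-fold microdilution of hydrochloride salts in water against E. coli ATCC 25922 grown overnight in BHI at 37° C. Final inoculum about (10^5 -10^6)/2 cfu/ml; after incubation at 37° C, MIC was recorded.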

[5] = test system: Shigella flexneri ATCC 12022; assay: MIC, 2-fold dilution method in micro-well plate, S. flexneri; type: cell-based; settings: S. flexneri ATCC12022, 37° C., read-out: Minimum Inhibitory Concentration
Outline: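 Test compounds, converted to hydrochloride salts and dissolved in sterile water, were serially diluted two-fold in micro-well plates. Wells received bacteria grown overnight in brain-heart infusion broth at 37 °C, about (10^5–10^6)/2 cfu/ml final. Minimum inhibitory concentration determined following incubation at 37 °C.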

[6] = test system: Citrobacter freundii ATCC 8090; assay: MIC, 2-fold dilution method in micro-well plate, C. freundii; type: cell-based
Outline: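 MIC recorded after 37° C. culture of wells inoculated at roughly (10^5-10^6)/2 cfu/ml, bacteria pre-grown overnight in BHI broth. Compounds, converted to hydrochloride salts and dissolved in sterile distilled water, serially diluted two-fold in micro-well plates.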

[7] = test system: Acinetobacter calcoaceticus; assay: MIC, 2-fold dilution method in micro-well plate, A. calcoaceticus; type: cell-based
[8] = test system: Klebsiella pneumoniae ATCC 13883; assay: MIC, 2-fold dilution method in micro-well plate, K. pneumoniae; type: cell-based
Outline: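 MIC determined after 37 °C incubation of wells inoculated with overnight BHI-grown bacteria at about (10^5–10^6)/2 cfu/ml final. Compound tested as hydrochloride salt, dissolved in sterile water and diluted two-fold serially.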

[9] = Pharmacokinetic properties in ICR mouse, oral and subcutaneous, Bio-Assay (Agar well method); type: in vivo; settings: 40 mg/kg, average of four tests; for AUC / Cmax / Tmax / bioavailability / half-life: blood; for dose excreted: urine, read-out: Urine Recovery
Description: The pharmacokinetic properties are tested by orally administrating and subcutaneously injecting a test compound and a substance for control to a ICR Mouse with 22 g±10% weight, drawing blood after 10, 20, 30, 45, 60, 90, 120, 150, 180 and […] and analyzed by Bio-Assay (Agar well method).

[10] = test system: Shigella sonnei ATCC 25931; assay: MIC, 2-fold dilution method in micro-well plate, S. sonnei; type: cell-based; settings: S. sonnei ATCC25931, 37° C., read-out: Minimum Inhibitory Concentration
Outline: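 Compounds, converted to hydrochloride salts, were serially diluted two-fold in micro-wells and mixed with an equal volume of bacteria grown overnight in BHI broth at 37° C (final about (10^5-10^6)/2 cfu/ml). Following culture at 37° C, the minimum inhibitory concentration was recorded.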

[11] = test system: Serratia marcescens ATCC 8100; assay: MIC, 2-fold dilution method in micro-well plate, S. marcescens; type: cell-based
Outline: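 Bacteria grown overnight in BHI broth at 37 °C were added to wells of two-fold diluted compound (as HCl salt, aqueous) at about (10^5-10^6)/2 cfu/ml final. Lowest inhibitory concentration recorded after 37 °C incubation.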

[12] = test system: Pseudomonas aeruginosa ATCC 27853; assay: MIC, 2-fold dilution method in micro-well plate, P. aeruginosa; type: cell-based; settings: P. aerugirnosa ATCC27853, 37° C., read-out: Minimum Inhibitory Concentration
Outline: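 MIC was recorded after 37° C incubation of bacteria with serial two-fold dilutions of compound. Bacteria came from an overnight 37° C BHI culture; the final inoculum was about (10^5-10^6)/2 cfu/ml. Compounds were tested as hydrochloride salts diluted in sterile water from a 10 mg/ml stock.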

LD50, oral, mice = settings: mouse, in vivo
[13] = test system: Streptococcus faecalis ATCC 29212; assay: MIC, 2-fold dilution method in micro-well plate, S. faecalis ATCC 29212; type: cell-based; settings: Enterococcus faecalis; S. faecalis ATCC29212, 37° C.; read-out: Minimum Inhibitory Concentration
Outline: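 MIC was read after incubation at 37° C in micro-well plates. Bacteria were grown overnight in BHI broth and added to give about (10^5-10^6)/2 cfu/ml per well. The hydrochloride-salt compounds were serially diluted two-fold in sterile water.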

[14] = test system: Streptococcus faecalis ATCC 19433; assay: MIC, 2-fold dilution method in micro-well plate, S. faecalis ATCC 19433; type: cell-based; settings: Enterococcus faecalis; S. faecalis ATCC19433, 37° C.; read-out: Minimum Inhibitory Concentration
Outline: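 Bacteria grown overnight in brain-heart infusion broth at 37 °C, then mixed with two-fold serial aqueous dilutions of hydrochloride salts in micro-wells at roughly (10^5-10^6)/2 cfu/ml. Lowest inhibitory concentration recorded after 37 °C culture.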

Enterobacter cloacae = assay: MIC, 2-fold dilution method in micro-well plate, E. cloacae; type: cell-based; settings: read-out: Minimum Inhibitory Concentration
[15] = test system: Streptococcus pyrogens ATCC 19615; assay: MIC, 2-fold dilution method in micro-well plate, S. pyrogens; type: cell-based; settings: S. pyrogenes ATCC19615, 37° C., read-out: Minimum Inhibitory Concentration
Outline: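 Inoculum from overnight 37° C brain-heart infusion culture gave roughly (10^5-10^6)/2 cfu/mL per well against two-fold serial dilutions of hydrochloride-salt compound in water. Lowest concentration inhibiting growth after 37° C incubation taken as MIC.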

[16] = test system: Proteus vulgaris ATCC 13315; assay: MIC, 2-fold dilution method in micro-well plate, P. vulgaris; type: cell-based
Outline: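 MIC recorded after 37 °C cultivation of compound hydrochloride salts in serial 2-fold aqueous dilutions, mixed equally with overnight BHI culture (about 10^5 cfu/ml inoculum). Micro-well plate format.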

[17] = test system: Salmonella typhimurium ATCC 14028; assay: MIC, 2-fold dilution method in micro-well plate, S. typhimurium; type: cell-based; settings: Salmonella enterica, read-out: Minimum Inhibitory Concentration
Outline: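 Hydrochloride salts dissolved in sterile water (10 mg/ml stock) and serially diluted twofold in microplate wells, then inoculated to roughly (10^5-10^6)/2 cfu/ml from overnight BHI culture. MIC recorded after 37 °C cultivation.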

[18] = ATCC13048, read-out: Minimum Inhibitory Concentration
[19] = ATCC25922, read-out: Minimum Inhibitory Concentration
[20] = ATCC8090, read-out: Minimum Inhibitory Concentration
[21] = ATCC13883, read-out: Minimum Inhibitory Concentration
[22] = S. marcescens ATCC8100, 37° C., read-out: Minimum Inhibitory Concentration
[23] = E. cloacae ATCC23355 (as in tables), 37° C.
[24] = ATCC13315, read-out: Minimum Inhibitory Concentration
[25] = S. typhisurium ATCC14028, 37° C.
[26] = E. aerogenes ATCC13048, 37° C., read-out: Minimum Inhibitory Concentration
[27] = P. vulgaris ATCC13315, 37° C., read-out: Minimum Inhibitory Concentration

Row | Compound | MIC [1] [µg/mL] | MIC [2] [µg/mL] | MIC [4, 19] [µg/mL] | MIC [5] [µg/mL] | MIC [6, 20] [µg/mL] | MIC [8, 21] [µg/mL] | AUC ([9]; po, P.O) [ng·h/mL] | Cmax ([9]; po, P.O) [ng/mL] | Tmax ([9]; po, P.O) [h] | AUC ([9]; sc, S.C) [ng·h/mL] | Cmax ([9]; sc, S.C) [ng/mL] | Tmax ([9]; sc, S.C) [h] | half-life ([9]; sc, S.C) [h] | dose excreted ([9]; po, P.O) [%] | dose excreted ([9]; sc, S.C) [%] | MIC [10] [µg/mL] | MIC [12] [µg/mL] | MIC [13] [µg/mL] | MIC [14] [µg/mL] | MIC [15] [µg/mL] | also measured
1 | CN1CCN(c2nc3c(cc2F)c(=O)c(C(=O)O)cn3-c2ccc(F)cn2)CC1.Cl [Example 13, 1-(5-fluoro-2-pyridyl)-6-fluoro-7-(4-methyl-1-piperazinyl)-1,4-dihydro-4-oxo-1,8-naphthyridine-3-carboxylic acid hydrochloride] | 0.625 | 2.5 | 0.156 | 0.156 | 0.156 | 0.625 | 41000 | 11500 | 1.12 | 55500 | 8000 | 0.81 | 11.5 | 19.6 | 30.8 | 0.156 | 1.25 | 5 | 5 | 5 | MIC [3, 18]: 0.625 µg/mL; MIC ([7]; A. calcoaceticus ATCC8090 (as in tables), 37° C., read-out: Minimum Inhibitory Concentration): 0.313 µg/mL; bioavailability ([9]; po, P.O): 74%; half-life ([9]; po, P.O): 8.07 h; MIC [11, 22]: 0.313 µg/mL; LD50 (LD50, oral, mice): ~1000 mg/kg; MIC (Enterobacter cloacae; [23]): 0.313 µg/mL; MIC [16, 24]: 0.625 µg/mL; MIC [17, 25]: 0.313 µg/mL
2 | CN1CCN(c2cc3c(cc2F)c(=O)c(C(=O)O)cn3-c2ccc(F)cn2)CC1.Cl [Example 18, 1-(5-fluoro-2-pyridyl)-6-fluoro-7-(4-methyl-1-piperazinyl)-1,4-dihydro-4-oxoquinoline-3-carboxylic acid hydrochloride] | 0.625 | 5 | 0.625 | 0.625 | 0.625 | 0.625 | 42200 | 9180 | 0.94 | 63400 | 19600 | 1 | 3.15 | 28.1 | 39.9 | 0.625 | 1.25 | 2.5 | 5 | 5 | MIC [3, 26]: 0.25 µg/mL; MIC [7, 20]: 0.625 µg/mL; bioavailability ([9]; po, P.O): 68.6%; half-life ([9]; po, P.O): 3.44 h; MIC [11, 22]: 1.25 µg/mL; LD50 (LD50, oral, mice): > 3000 mg/kg; MIC (Enterobacter cloacae): 0.625 µg/mL; MIC [16, 27]: 0.313 µg/mL; MIC [17, 25]: 1.25 µg/mL
3 | Cc1c(F)c(N2CCN(C)CC2)cc2c1c(=O)c(C(=O)O)cn2-c1ccc(F)cn1.Cl [Example 28, 5-methyl-7-(4-methyl-1-piperazinyl)-1-(5-fluoro-2-pyridyl)-6-fluoro-1,4-dihydro-4-oxoquinoline-3-carboxylic acid hydrochloride] | 0.313 | 10 | 1.25 | 0.625 | – | 1.25 | 62400 | 6360 | 0.87 | 76100 | 6940 | 1 | 7.26 | 25.2 | 13.4 | 1.25 | 1.25 | 5 | 10 | 10 | MIC [3, 18]: 0.625 µg/mL; MIC ([6]; C. freundii ATCC8090, 37° C., read-out: Minimum Inhibitory Concentration): 2.5 µg/mL; MIC [7, 20]: 1.25 µg/mL; bioavailability ([9]; po, P.O): 81.3%; half-life ([9]; po, P.O): 7.57 h; MIC ([11]; ATCC8100, read-out: Minimum Inhibitory Concentration): 1.25 µg/mL; MIC (Enterobacter cloacae): 0.625 µg/mL; MIC [16, 24]: 0.625 µg/mL; MIC [17]: 1.25 µg/mL
4 | Cc1c(F)c(N2CCNC(C)C2)cc2c1c(=O)c(C(=O)O)cn2-c1ccc(F)cn1.Cl (stereo not shown) [Example 29, 5-methyl-7-(3-methyl-1-piperazinyl)-1-(5-fluoro-2-pyridyl)-6-fluoro-1,4-dihydro-4-oxoquinoline-3-carboxylic acid hydrochloride] | 0.625 | 10 | – | 0.625 | 0.625 | – | – | – | – | 32600 | 8340 | 1.25 | 2.31 | 9.35 | 12.8 | 0.625 | 1.25 | 5 | 5 | 10 | MIC [3, 26]: 0.313 µg/mL; MIC ([4]; E. coli ATCC25922, 37° C., read-out: Minimum Inhibitory Concentration): 1.25 µg/mL; MIC [7, 20]: 0.625 µg/mL; MIC ([8]; K. pneumoniae ATCC13883, 37° C., read-out: Minimum Inhibitory Concentration): 1.25 µg/mL; MIC [11, 22]: 1.25 µg/mL; MIC (Enterobacter cloacae; [23]): 0.313 µg/mL; MIC [16, 27]: 1.25 µg/mL; MIC [17]: 0.625 µg/mL
